A short description of the data set: Aqueous solubility of organic solvent, EPA830.7840 flask shaking method. In kind it is physicochemical. The note with it: 1 atm and 23°C. From the text:
The upper limit of the aqueous solubility of the organic solvent (B) is not particularly limited. The organic solvent (B) may be, for example, a water-miscible organic solvent that can be mixed with water in an arbitrary amount. […] The aqueous solubility of the organic solvent (B) represents the maximum amount (g) of the organic solvent dissolved in 100 g of water.

`CCCOC(C)COC(C)CO` (stereo not drawn) [Dipropylene glycol monopropyl ether]: the Aqueous solubility was 18 g/100 g of water and the “amount of the organic solvent dissolved in 100 g of water” value (shortened to “amount of the organic solvent dissolved”) turned out to be 18 g. In the case of `OCCOc1ccccc1` [ethylene glycol monophenyl ether], the “amount of the organic solvent dissolved” value was found to be 2.3 g.

In the case of `COC(C)COC(C)COC(C)CO` (stereo not drawn) [tripropylene glycol monomethyl ether], the “amount of the organic solvent dissolved” value is on record as “miscible”. Turning to `CCCCOCCOCCO` [Diethylene glycol monobutyl ether], the Aqueous solubility entry is given as “miscible” and the “amount of the organic solvent dissolved” value is given as “miscible”. For `COC(C)COC(C)CO` (stereo not drawn) [Dipropylene glycol monomethyl ether], the Aqueous solubility result is listed as “miscible”. `OCc1ccccc1` [Benzyl alcohol]: the Aqueous solubility is given as 4 g/100 g of water and the “amount of the organic solvent dissolved” value is 4 g. In the same order, the values of `CCCCOC(C)COC(C)COC(C)CO` (stereo not drawn) [Tripropylene glycol monobutyl ether] are 3 g/100 g of water and 3 g. Turning to `COCC(C)O` (stereo not drawn) [Propylene glycol monomethyl ether], the Aqueous solubility result was “miscible”.

(Values after patent EP4810579A1, “AQUEOUS COATING COMPOSITION” (Chugoku Marine Paints, Ltd., priority 2023, dated 2025).)
